26 molecules from US20230365582A1, “NOVEL COMPOUNDS HAVING INHIBITORY ACTIVITY ON PROSTAGLANDIN E2 RECEPTOR AND USES THEREOF” (KANAPH THERAPEUTICS INC., priority 2020, published 2023) can be followed below.

A value given as a limit tells only on which side of the number the result lay.

Experiment [1] addresses T1, hEP2 (Homo sapiens, UniProt P43116).
T1 construct: expressed in transfected cells; host or cells: HEK293
The experiment can be described thus: hEP2 cAMP assay. Type of experiment: cell-based. As to conditions: HEK293 cells overexpressing hEP2; PGE2 agonist 400 pM; graded per Table 21; read-out: IC50 (nM) EP2 cAMP. The method in brief:
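HEK293 cells overexpressing hEP2, serum-starved 4 h, then 1,000 cells/well treated with compound (10 μM–0.001 nM) plus 400 pM PGE2 (about EC50-80) in HBSS buffer with 0.5 mM IBMX for 12 min at room temperature. cAMP measured by TR-FRET (665/615 nm) as % of DMSO control; IC50 from 4-parameter fit, median of repeats.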
For orientation: Changes in cAMP serve as a functional read-out for many G protein-coupled receptors.

Experiment [2] concerns the target T2, hEP4 (Homo sapiens, UniProt P35408).
T2 construct: expressed in transfected cells; host or cells: HEK293
As to the kind of experiment: hEP4 cAMP assay. The experiment is classed as cell-based. As to conditions: HEK293 cells overexpressing hEP4; PGE2 agonist 20 nM; graded per Table 21; read-out: IC50 (nM) EP4 cAMP. The method, boiled down:
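HEK293 cells overexpressing hEP4, starved 4 h, were treated with compound (10 μM-0.001 nM) plus 20 nM PGE2 (EC50-80) in HBSS buffer with 0.5 mM IBMX for 18.5 min at room temperature. cAMP was read by TR-FRET (665/615 nm) as % of DMSO control; IC50 from 4-parameter fit, median of multiple experiments.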

T2 sequence (P35408 whole entry): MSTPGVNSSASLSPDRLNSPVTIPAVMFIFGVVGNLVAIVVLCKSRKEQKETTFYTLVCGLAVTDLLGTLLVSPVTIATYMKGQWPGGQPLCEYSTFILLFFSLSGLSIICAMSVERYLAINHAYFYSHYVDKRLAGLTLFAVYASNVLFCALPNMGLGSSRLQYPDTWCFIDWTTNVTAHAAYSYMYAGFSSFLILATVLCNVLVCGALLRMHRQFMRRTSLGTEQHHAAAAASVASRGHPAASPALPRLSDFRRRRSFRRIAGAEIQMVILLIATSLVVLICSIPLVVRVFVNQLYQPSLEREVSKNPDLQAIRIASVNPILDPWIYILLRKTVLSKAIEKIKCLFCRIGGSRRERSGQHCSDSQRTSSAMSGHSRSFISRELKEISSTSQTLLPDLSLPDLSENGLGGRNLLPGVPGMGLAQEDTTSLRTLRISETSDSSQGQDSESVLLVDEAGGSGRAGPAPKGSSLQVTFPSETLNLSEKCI
T1 sequence (P43116 whole entry): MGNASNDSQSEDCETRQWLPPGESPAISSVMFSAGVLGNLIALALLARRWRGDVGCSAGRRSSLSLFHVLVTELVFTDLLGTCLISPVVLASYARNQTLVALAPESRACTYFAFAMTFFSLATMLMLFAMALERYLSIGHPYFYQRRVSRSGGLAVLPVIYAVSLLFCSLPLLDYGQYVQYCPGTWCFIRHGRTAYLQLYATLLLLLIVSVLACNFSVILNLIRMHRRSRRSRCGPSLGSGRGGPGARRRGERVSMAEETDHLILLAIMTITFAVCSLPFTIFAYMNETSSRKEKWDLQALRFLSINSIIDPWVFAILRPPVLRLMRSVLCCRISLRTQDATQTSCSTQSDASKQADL

What is called IC50 is the midpoint of a concentration-inhibition curve. With `Cc1sc(C)c(C(=O)NC2CC3(C2)CC(C(=O)O)C3)c1Oc1ccc(-c2ccccc2)cc1` (stereo not shown) [Example 74, 6-(4-([1,1′-biphenyl]-4-yloxy)-2,5-dimethylthiophene-3-carboxamido)spiro[3.3]heptane-2-carboxylic acid], the IC50 in experiment [1] and in experiment [2] was over 10000 nM each time.

With `Cc1sc(C)c(C(=O)NC2CC3(C2)CC(C(=O)O)C3)c1Nc1ccc(-c2ccccc2)cc1` (stereo not shown) [Example 75, 6-(4-([1,1′-biphenyl]-4-ylamino)-2,5-dimethylthiophene-3-carboxamido)spiro[3.3]heptane-2-carboxylic acid], the 50% inhibitory concentration (IC50) in experiment [1] and in experiment [2] was over 10000 nM throughout.

With `Cc1sc(C)c(N(C)c2ccc(-c3ccccc3)cc2)c1C(=O)NC1CC2(C1)CC(C(=O)O)C2` (stereo not shown) [Example 76, 6-(4-([1,1′-biphenyl]-4-yl(methyl)amino)-2,5-dimethylthiophene-3-carboxamido)spiro[3.3]heptane-2-carboxylic acid], the results for the IC50 in experiment [1] and in experiment [2] were over 10000 nM and 500 to 5000 nM, respectively.

Turning to `Cc1sc(C)c(C(=O)NC2CC3(C2)CC(C(=O)O)C3)c1CN1CCN(c2ccccc2)CC1` (stereo not shown) [Example 77, 6-(2,5-dimethyl-4-((4-phenylpiperazin-1-yl)methyl)thiophene-3-carboxamido)spiro[3.3]heptane-2-carboxylic acid], the IC50 in experiment [1] and in experiment [2] was over 10000 nM in each case.

On to `Cc1sc(C)c(C(=O)NC2CC3(C2)CC(C(=O)O)C3)c1Cn1cc(-c2ccccc2)cn1` (stereo not shown) [Example 78, 6-(2,5-dimethyl-4-((4-phenyl-1H-pyrazol-1-yl)methyl)thiophene-3-carboxamido)spiro[3.3]heptane-2-carboxylic acid], for which the IC50 in experiment [1] is over 10000 nM; in experiment [2] it was 5000 to 10000 nM.

As to `O=C(NC1CC2(C1)CC(C(=O)O)C2)c1csc2ccn(Cc3ccc(-c4ccccc4)cc3)c12` (stereo not shown) [Example 79, 6-(4-([1,1′-biphenyl]-4-ylmethyl)-4H-thieno[3,2-b]pyrrole-3-carboxamido)spiro[3.3]heptane-2-carboxylic acid], the IC50 in experiment [1] and in experiment [2] was under 500 nM each time.

Turning to `Cc1sc2ccn(Cc3ccc(-c4ccccc4)cc3)c2c1C(=O)NC1CC2(C1)CC(C(=O)O)C2` (stereo not shown) [Example 80, 6-(4-([1,1′-biphenyl]-4-ylmethyl)-2-methyl-4H-thieno[3,2-b]pyrrole-3-carboxamido)spiro[3.3]heptane-2-carboxylic acid], the 50% inhibitory concentration (IC50) in experiment [1] was 500 to 5000 nM; in experiment [2], under 500 nM.

Consider `Cc1cn(Cc2ccc(-c3ccccc3)cc2)c2c(C(=O)NC3CC4(C3)CC(C(=O)O)C4)csc12` (stereo not shown) [Example 81, 6-(4-([1,1′-biphenyl]-4-ylmethyl)-6-methyl-4H-thieno[3,2-b]pyrrole-3-carboxamido)spiro[3.3]heptane-2-carboxylic acid], for which the IC50 in experiment [1] is 500 to 5000 nM; in experiment [2], over 10000 nM.

As for `O=C(NC1CC2(C1)CC(C(=O)O)C2)c1c(Cl)sc2ccn(Cc3ccc(-c4ccccc4)cc3)c12` (stereo not shown) [Example 82, 6-(4-([1,1′-biphenyl]-4-ylmethyl)-2-chloro-4H-thieno[3,2-b]pyrrole-3-carboxamido)spiro[3.3]heptane-2-carboxylic acid], the IC50 was 500 to 5000 nM in experiment [1] and under 500 nM in experiment [2].

As to `O=C(N[C@H]1C[C@H](C(=O)O)C1)c1csc2ccn(Cc3ccc(-c4ccccc4)cc3)c12` [Example 83, (1R,3R)-3-(4-([1,1′-biphenyl]-4-ylmethyl)-4H-thieno[3,2-b]pyrrole-3-carboxamido)cyclobutane-1-carboxylic acid], the concentration for half-maximal inhibition (IC50) is 500 to 5000 nM in experiment [1] and over 10000 nM in experiment [2].

As to `O=C(N[C@H]1C[C@@H](C(=O)O)C1)c1csc2ccn(Cc3ccc(-c4ccccc4)cc3)c12` [Example 84, (1S,3S)-3-(4-([1,1′-biphenyl]-4-ylmethyl)-4H-thieno[3,2-b]pyrrole-3-carboxamido)cyclobutane-1-carboxylic acid], the IC50 in experiment [1] and in experiment [2] was over 10000 nM throughout.

Regarding `COc1cccc(-c2ccc(Cn3ccc4scc(C(=O)NC5CC6(C5)CC(C(=O)O)C6)c43)cc2)c1` (stereo not shown) [Example 85, 6-(4-((3′-methoxy-[1,1′-biphenyl]-4-yl)methyl)-4H-thieno[3,2-b]pyrrole-3-carboxamido)spiro[3.3]heptane-2-carboxylic acid], the 50% inhibitory concentration (IC50) in experiment [1] and in experiment [2] was under 500 nM each time.

For `O=C(NC12CCC(C(=O)O)(CC1)CC2)c1csc2ccn(Cc3ccc(-c4ccccc4)cc3)c12` [Example 88, 4-(4-([1,1′-biphenyl]-4-ylmethyl)-4H-thieno[3,2-b]pyrrole-3-carboxamido)bicyclo[2.2.2]octane-1-carboxylic acid], the IC50 in experiment [1] was 500 to 5000 nM; in experiment [2] it was 5000 to 10000 nM.

In the case of `COc1cc(OC)cc(-c2ccc(Cn3ccc4scc(C(=O)NC5CC6(C5)CC(C(=O)O)C6)c43)cc2)c1` (stereo not shown) [Example 89, 6-(4-((3′,5′-dimethoxy-[1,1′-biphenyl]-4-yl)methyl)-4H-thieno[3,2-b]pyrrole-3-carboxamido)spiro[3.3]heptane-2-carboxylic acid], the concentration for half-maximal inhibition (IC50) in experiment [1] and in experiment [2] was under 500 nM in each case.

Take `O=C(NC1CC2(C1)CC(C(=O)O)C2)c1csc2ccn(Cc3ccc(C(F)(F)F)cc3)c12` (stereo not shown) [Example 90, 6-(4-(4-(trifluoromethyl)benzyl)-4H-thieno[3,2-b]pyrrole-3-carboxamido)spiro[3.3]heptane-2-carboxylic acid]: the IC50 in experiment [1] and in experiment [2] was 500 to 5000 nM each time.

For the molecule `O=C(NC1CC2(C1)CC(C(=O)O)C2)c1csc2ccn(CCc3ccc(-c4ccccc4)cc3)c12` (stereo not shown) [Example 91, 6-(4-(2-([1,1′-biphenyl]-4-yl)ethyl)-4H-thieno[3,2-b]pyrrole-3-carboxamido)spiro[3.3]heptane-2-carboxylic acid], the IC50 in experiment [1] and in experiment [2] was over 10000 nM each time.

For `O=C(NC1CC2(C1)CC(C(=O)O)C2)c1csc2ccn(Cc3ccc(-c4cccc(F)c4)cc3)c12` (stereo not shown) [Example 92, 6-(4-((3′-fluoro-[1,1′-biphenyl]-4-yl)methyl)-4H-thieno[3,2-b]pyrrole-3-carboxamido)spiro[3.3]heptane-2-carboxylic acid], the 50% inhibitory concentration (IC50) in experiment [1] and in experiment [2] was under 500 nM each time.

With `O=C(NC1CC2(C1)CC(C(=O)O)C2)c1csc2ccn(Cc3ccc(-c4ncccn4)cc3)c12` (stereo not shown) [Example 93, 6-(4-(4-(pyrimidin-2-yl)benzyl)-4H-thieno[3,2-b]pyrrole-3-carboxamido)spiro[3.3]heptane-2-carboxylic acid], the 50% inhibitory concentration (IC50) in experiment [1] lay in the range of 5000 to 10000 nM; in experiment [2], 500 to 5000 nM.

In the case of `O=C(NC1CC2(C1)CC(C(=O)O)C2)c1csc2ccn(Cc3cnc(-c4ccccc4)nc3)c12` (stereo not shown) [Example 94, 6-(4-((2-phenylpyrimidin-5-yl)methyl)-4H-thieno[3,2-b]pyrrole-3-carboxamido)spiro[3.3]heptane-2-carboxylic acid], the 50% inhibitory concentration (IC50) was 500 to 5000 nM in experiment [1] and under 500 nM in experiment [2].

Regarding `COc1cc(F)cc(-c2ccc(Cn3ccc4sc(C)c(C(=O)NC5CC6(C5)CC(C(=O)O)C6)c43)cc2)c1` (stereo not shown) [Example 95], the IC50 was 500 to 5000 nM in experiment [1] and under 500 nM in experiment [2].

Turning to `Cc1sc2ccn(CC#Cc3ccccc3)c2c1C(=O)NC1CC2(C1)CC(C(=O)O)C2` (stereo not shown) [Example 96, 6-(2-methyl-4-(3-phenylprop-2-yn-1-yl)-4H-thieno[3,2-b]pyrrole-3-carboxamido)spiro[3.3]heptane-2-carboxylic acid], the IC50 in experiment [1] is over 10000 nM; in experiment [2], 500 to 5000 nM.

In the case of `COc1cc(F)cc(-c2ccc(Cn3ccc4scc(C(=O)NC5CC6(C5)CC(C(=O)O)C6)c43)cc2)c1` (stereo not shown) [Example 97, 6-4-((3′-fluoro-5′-methoxy[1,1′-biphenyl-4-yl)methyl)-4H-thieno[3,2-b]pyrrole-3-carboxamido)spiro[3.3]heptane-2-carboxylic acid], the IC50 in experiment [1] and in experiment [2] was under 500 nM each time.

For the molecule `O=C(NC1CC2(C1)CC(C(=O)O)C2)c1csc2ccn(CC#Cc3ccccc3)c12` (stereo not shown) [Example 98, 6-(2-4-(3-phenylprop-2-yn-1-yl)-4H-thieno[3,2-b]pyrrole-3-carboxamido)spiro[3.3]heptane-2-carboxylic acid], the IC50 was over 10000 nM in experiment [1] and 500 to 5000 nM in experiment [2].

Take `O=C(NC1CC2(C1)CC(C(=O)O)C2)c1csc2ccn(Cc3ccc(-c4cccnc4)cc3)c12` (stereo not shown) [Example 99, 6-(4-(4-(pyridin-3-yl)benzyl)-4H-thieno[3,2-b]pyrrole-3-carboxamido)spiro[3.3]heptane-2-carboxylic acid]: the IC50 in experiment [1] is over 10000 nM; in experiment [2], under 500 nM.

Turning to `O=C(NC1CC2(C1)CC(C(=O)O)C2)c1csc2ccn(Cc3ccc(-c4cncc(F)c4)cc3)c12` (stereo not shown) [Example 100, 6-(4-(4-(5-fluoropyridin-3-yl)benzyl)-4H-thieno[3,2-b]pyrrole-3-carboxamido)spiro[3.3]heptane-2-carboxylic acid], the IC50 in experiment [1] is 500 to 5000 nM; in experiment [2] it was under 500 nM.

Take `COc1cncc(-c2ccc(Cn3ccc4scc(C(=O)NC5CC6(C5)CC(C(=O)O)C6)c43)cc2)c1` (stereo not shown) [Example 101, 6-(4-(4-(5-methoxypyridin-3-yl)benzyl)-4H-thieno[3,2-b]pyrrole-3-carboxamido)spiro[3.3]heptane-2-carboxylic acid]: the 50% inhibitory concentration (IC50) in experiment [1] is 500 to 5000 nM; in experiment [2], under 500 nM.
